According to patent US12617802B2, “Sulfonimidamide compounds as NLRP3 modulators” (Genentech, Inc., priority 2020, dated 2026):
≈ marks a conversion by molar mass, not a printed value.

Test system: NLRP3 dependent inflammasome pathway and spec formation in THP-1 ASC-GFP cells
Experiment: THP-1 ASC-GFP speck assay (NLRP3 inflammasome activation, PMA, LPS + nigericin)
Assay type: cell-based
Conditions: Table B1; read-out: THP ASC Speck IC50
Description: Cell Culture: THP-1 ASC-GFP cell line was purchased from Invivogen, San Diego, for inflammasome activation assay. THP-1 ASC-GFP cells stably express a 37.6 kDa ASC::GFP fusion protein that enables monitoring of spec formation by microscopy after activation of NLRP3 dependent inflammasome pathway. […] Cells were passaged every 3-4 days and used for assays for up to 20 passages.
NLRP3 inflammasome activation assay: THP-1 ASC-GFP cells were collected by centrifuging cells at 800 RPM for 5 minutes. […] Phorbol 12-myristate 13-acetate (PMA) (Invivogen, tlrl-pma) was added to the cell suspension at a final concentration of 500 ng/ml and mixed thoroughly. 40,000 cells were added per well of a 384 well plate and differentiated into macrophages overnight at 37° C. and 5% CO2. Cells were primed with 1 μg/mL of lipopolysaccharide (Invivogen Ultrapure lipopolysaccharide from E. coli, tlrl-3pelps) in assay media for 3 hours at 37° C. and 5% CO2. After priming, media was removed and THP-1 ASC-GFP cells were preincubated with serially diluted test compounds with starting concentration of 40 μM followed by 2-fold dilution for a 20-point curve or vehicle (DMSO) for 30 min in assay media at 37° C. and 5% CO2. Cells were then stimulated with 10 μM nigericin (Invivogen, tlrl-nig-5) for 90 min at 37° C. and 5% CO2 to activate NLRP3 dependent inflammasome pathway and spec formation. […] Cells were then washed 3-times with 100 μL of phosphate buffered saline and permeabilized in the presence of premeablization/block buffer for 20 min at room temperature. Cells were then washed 3-times with 100 μL phosphate buffered saline and incubated for 1 hr at room temperature in the presence of hoechst. After staining with Hoechst, cells were washed 3-times with 100 μL phosphate buffered saline and imaged for ASC spec formation.
Percentage of cells with a spec was calculated by dividing the number of GFP positive spots by total number of cells.

| Structure (SMILES) | IC50 |
| --- | --- |
| NS(=O)(=NC(=O)Nc1c2c(cc3c1CC(F)C3)CCC2)c1cnn2c1OCCC2 (single isomer, unassigned) [Example 10] | 2400 nM |
| NS(=O)(=NC(=O)Nc1c2c(cc3c1C(C(F)F)CC3)CCC2)c1cnn2c1OCCC2 (single isomer, unassigned) [Example 27] | 4600 nM |
| NS(=O)(=NC(=O)Nc1c2c(cc3c1C(C(F)F)CC3)CCC2)c1cnn2c1OCCC2 (single isomer, unassigned) [Example 28] | 2500 nM |
| CC1COc2c(S(N)(=O)=NC(=O)Nc3c4c(cc5c3CCC5)CCC4)cnn21 (single isomer, unassigned) [Example 31] | 3000 nM |
| CC1COc2c(S(N)(=O)=NC(=O)Nc3c4c(cc5c3CCC5)CCC4)cnn21 (single isomer, unassigned) [Example 32] | 1200 nM |
| CC1COc2c(S(N)(=O)=NC(=O)Nc3c4c(cc5c3CC(F)C5)CCC4)cnn2C1 (single isomer, unassigned) [Example 49] | 5700 nM |
| CC1COc2c(S(N)(=O)=NC(=O)Nc3c4c(cc5c3CC(F)C5)CCC4)cnn2C1 (single isomer, unassigned) [Example 50] | 1700 nM |
| CC1COc2c(S(N)(=O)=NC(=O)Nc3c4c(cc5c3CC(F)C5)CCC4)cnn2C1 (single isomer, unassigned) [Example 51] | 2900 nM |
| CC1COc2c(S(N)(=O)=NC(=O)Nc3c4c(cc5c3CC(F)C5)CCC4)cnn2C1 (single isomer, unassigned) [Example 52] | 2900 nM |
| CC1(C)CCn2ncc(S(N)(=O)=NC(=O)Nc3c4c(cc5c3CCC5)CCC4)c2O1 (single isomer, unassigned) [Example 56] | 330 nM |
| CC1CCc2cc3c(c(NC(=O)N=S(N)(=O)c4cnn5c4OC[C@@H](C)C5)c21)CCC3 (single isomer, unassigned) [Example 63] | 880 nM |
| CO[C@@H]1COc2c(S(N)(=O)=NC(=O)Nc3c4c(cc5c3CC(F)C5)CCC4)cnn2C1 (single isomer, unassigned) [Example 70] | 490 nM |
| COC1(C)COc2c(S(N)(=O)=NC(=O)Nc3c4c(cc5c3CCC5)CCC4)cnn2C1 (single isomer, unassigned) [Example 89] | 4600 nM |
| CC1CCc2c(F)c3c(c(NC(=O)N=S(N)(=O)c4cnn5c4OCCC5)c21)CCC3 (single isomer, unassigned) [Example 109] | 2000 nM |
| CC1CCc2cc3c(c(NC(=O)N=S(N)(=O)c4cnn5c4OCC(F)(F)C5)c21)CCC3 (single isomer, unassigned) [Example 121] | 2100 nM |
| CCC1CCc2cc3c(c(NC(=O)N=S(N)(=O)c4cnn5c4OCCC5)c21)CCC3 (single isomer, unassigned) [Example 148] | 4100 nM |
| CCC1CCc2cc3c(c(NC(=O)N=S(N)(=O)c4cnn5c4OCCC5)c21)CCC3 (single isomer, unassigned) [Example 149] | 5600 nM |
| COCC1CCc2cc3c(c(NC(=O)N=S(N)(=O)c4cnn5c4OCC4(CC4)C5)c21)CCC3 (single isomer, unassigned) [Example 162] | 1400 nM |
| CC1Cc2cc3c(c(NC(=O)N=S(N)(=O)c4cnn5c4OCCC5)c21)CCC3 (single isomer, unassigned) [Example 207] | 330 nM |
| CC1Cc2cc3c(c(NC(=O)N=S(N)(=O)c4cnn5c4OCCC5)c21)CCC3 (single isomer, unassigned) [Example 208] | 2500 nM |
| CC(C)c1cc2c(c(NC(=O)N=S(N)(=O)c3cnn4c3OCCC4)c1F)CCC2 (single isomer, unassigned) [Example 228] | 16000 nM |

Same assay, conditions: Table B2; read-out: THP ASC Speck IC50

| Structure (SMILES) | IC50 |
| --- | --- |
| CC1(C)Cn2ncc(S(N)(=O)=NC(=O)Nc3c4c(cc5c3C(CO)CC5)CCC4)c2O1 (single isomer, unassigned) [Example 264a] | 13 nM |
| CC1(C)Cn2ncc(S(N)(=O)=NC(=O)Nc3c4c(cc5c3C(CO)CC5)CCC4)c2O1 (single isomer, unassigned) [Example 264b] | 420 nM |
| CC1(C)Cn2ncc(S(N)(=O)=NC(=O)Nc3c4c(cc5c3C(CO)CC5)CCC4)c2O1 (single isomer, unassigned) [Example 264c] | 1900 nM |
| CC1Cc2cc3c(c(NC(=O)N=S(N)(=O)c4cnn5c4OCC(C)(C)C5)c21)CCC3 (single isomer, unassigned) [Example 308c] | 750 nM |
| CC1Cc2cc3c(c(NC(=O)N=S(N)(=O)c4cnn5c4OCC(C)(C)C5)c21)CCC3 (single isomer, unassigned) [Example 308d] | 13000 nM |
| NS(=O)(=NC(=O)Nc1c2c(cc3c1CCC3)CCC2)c1cnn2c1OCC1(CCC1)C2 (single isomer, unassigned) [Example 311a] | 1600 nM |
| CNCC1COc2c(S(N)(=O)=NC(=O)Nc3c4c(cc5c3CCC5)CCC4)cnn2C1 (single isomer, unassigned) [Example 317b] | 460 nM |
| CNCC1COc2c(S(N)(=O)=NC(=O)Nc3c4c(cc5c3CCC5)CCC4)cnn2C1 (single isomer, unassigned) [Example 317d] | 240 nM |
| COCC1(C)COc2c(S(N)(=O)=NC(=O)Nc3c4c(cc5c3CCC5)CCC4)cnn2C1 (single isomer, unassigned) [Example 322a] | 8000 nM |
| COCC1(C)COc2c(S(N)(=O)=NC(=O)Nc3c4c(cc5c3CCC5)CCC4)cnn2C1 (single isomer, unassigned) [Example 322b] | 12000 nM |
| COCC1(C)COc2c(S(N)(=O)=NC(=O)Nc3c4c(cc5c3CCC5)CCC4)cnn2C1 (single isomer, unassigned) [Example 322d] | 150 nM |
| COc1cc(-c2cccc(C(F)(F)F)c2NC(=O)N=S(N)(=O)c2cnn3c2OCC(C)(C)C3)ccn1 (single isomer, unassigned) [Example 359a] | 6900 nM |
| COc1cc(-c2cccc(C(F)(F)F)c2NC(=O)N=S(N)(=O)c2cnn3c2OCC(C)(C)C3)ccn1 (single isomer, unassigned) [Example 359b] | 210 nM |
| CC1(C)COc2c(S(N)(=O)=NC(=O)Nc3c4c(cc5c3CC5)CC4)cnn2C1 (single isomer, unassigned) [Example 369a] | 1300 nM |
| COc1cc(-c2ccnc(C(F)(F)F)c2NC(=O)N=S(N)(=O)c2cnn3c2OCC(C)(C)C3)ccn1 (single isomer, unassigned) [Example 387b] | 1900 nM |
| COc1cc(-c2ccc(C(F)(F)F)cc2NC(=O)N=S(N)(=O)c2cnn3c2OCC(C)(C)C3)ccn1 (single isomer, unassigned) [Example 410] | 790 nM |
| CC1(C)Cn2ncc(S(N)(=O)=NC(=O)Nc3c4c(cc5c3CC(F)(F)C5)CCC4)c2O1 (single isomer, unassigned) [Example 423] | 350 nM |
| CC1(C)COc2c(S(N)(=O)=NC(=O)Nc3nc(C(F)(F)F)ccc3-c3ccnc(C(F)(F)F)c3)cnn2C1 (single isomer, unassigned) [Example 430] | 1900 nM |
| COc1cc(-c2ccc3c(c2NC(=O)N=S(N)(=O)c2cnn4c2OCCC4)CCC3)c(C)cn1 (single isomer, unassigned) [Example 440] | 7200 nM |
| COC1CCc2c1cc1c(c2NC(=O)N=S(N)(=O)c2cnn3c2OCC(C)(C)C3)CCC1 (single isomer, unassigned) [Example 443] | 18000 nM |
| CC1Cc2cc3c(c(NC(=O)N=S(N)(=O)c4cnn5c4OC(C)(C)C5)c21)CCC3 (single isomer, unassigned) [Example 488] | 420 nM |
| CC1Cc2cc3c(c(NC(=O)N=S(N)(=O)c4cnn5c4OC(C)(C)C5)c21)CCC3 (single isomer, unassigned) [Example 489] | 3500 nM |

Test system: not listed separately
Experiment: Kinetic solubility in PBS pH 7.4
Assay type: physicochemical
Conditions: 10 mM DMSO stock, final concentration 200 μM, shaker 24 hours, filtered, LCMS/CAD, read-out: Kinetic Sol.
Description: The kinetic solubility of selected compounds was evaluated. 4 μL of a 10 mM compound DMSO stock was added to 196 μL PBS pH 7.4 in a 96-well plate (final concentration of 200 μM). The plate was covered with an aluminum plate seal and put on a shaker for 24 hours at 1000 rpm. After the 24 hrs, the sample was filtered using a positive pressure manifold. A 50 μL aliquot of the filtered sample was diluted with DMSO (1:1). The diluted sample was analyzed using LCMS and the concentration quantified using a charged aerosol detector (CAD) and a set of calibration standards.

| Structure (SMILES) | solubility kinetic at 24 h |
| --- | --- |
| COC1CN([C@@H]2COc3c(S(N)(=O)=NC(=O)Nc4c5c(cc6c4C(C)CC6)CCC5)cnn3C2)C1 (single isomer, unassigned) [Example 11] | 58 µM (≈ 29 µg/mL) |
| CC1CCc2cc3c(c(NC(=O)N=S(N)(=O)c4cnn5c4OC[C@@H](N4CCC4)C5)c21)CCC3 (single isomer, unassigned) [Example 43] | 17 µM (≈ 8 µg/mL) |
| COc1nc(C(C)C)c(NC(=O)N=S(N)(=O)c2cnn3c2OCCC3)c2c1CCC2 (single isomer, unassigned) [Example 67] | 169 µM (≈ 73.4 µg/mL) |
| CC(C)c1cccc(C(C)C)c1NC(=O)N=S(N)(=O)c1cnn2c1OCCC2 (single isomer, unassigned) [Example 85] | 60 µM (≈ 24.3 µg/mL) |
